Experimental findings from ChEMBL document CHEMBL1149830, “Kadsuracoccinic acids A-C, ring-A seco-lanostane triterpenes from Kadsura coccinea and their effects on embryonic cell division of Xenopus laevis” (J Nat Prod, 2008) are described below.

The nature of assay [1]: Growth inhibition of embryonic cells of stage 8 Xenopus laevis blastulae at 10 ug/mL. The assay is classed as functional. Conditions: Blastula stage.
Assay [2] can be described thus: Induction of cleavage arrest in embryonic cells of stage 8 Xenopus laevis blastulae. Format: functional, cell-based. Conditions: Blastula.
Assay [3] in a line: Induction of cleavage arrest in embryonic cells of stage 8 Xenopus laevis blastulae at 1 ug/mL. Format: functional, Blastula.

What is called inhibition is the drop in the measured response relative to a control, in per cent. A higher inhibition goes with a response far below the control. Usually IC50 stands for the concentration needed to halve the response being measured. The low end stands for inhibition by little substance, the high end for a need for much substance. `O=c1[nH]cc(F)c(=O)[nH]1` [FLUOROURACIL] returned an inhibition at 10 µg/mL in assay [1] of 47%. Besides, the IC50 in assay [2] was determined as 26.8 µM.
The molecule `C=C(C)[C@@H]1CC[C@@H]2C(=CC[C@]3(C)/C(=C(/C)CC/C=C(/C)C(=O)O)CC[C@@]23C)[C@@]1(C)CCC(=O)O` [KADSURACOCCINIC ACID A] returned an Activity in assay [3] of 85%. In assay [2], this molecule displayed a 50% inhibitory concentration (IC50) of 0.68 µM.
